Source: ChEMBL document CHEMBL4002572, “Development of CXCR4 modulators by virtual HTS of a novel amide-sulfamide compound library” (Eur J Med Chem, 2017)
Calls of active or inactive are those of the source. No cut-off for these calls is given here.

What was measured:
[1] = biological target: C-X-C chemokine receptor type 4 (Homo sapiens) (UniProt P61073); assay: Displacement of biotinylated-TN14003 from CXCR4 in human MDA-MB-231 cells assessed as reduction in fluorescence preincubated for 10 mins followed by biotinylated-TN14003 addition measured after 30 mins by streptavidin-rhodamine staining based microscopic analysis; assay type: cell-based
C-X-C chemokine receptor type 4 (Homo sapiens), sequence (P61073 whole entry): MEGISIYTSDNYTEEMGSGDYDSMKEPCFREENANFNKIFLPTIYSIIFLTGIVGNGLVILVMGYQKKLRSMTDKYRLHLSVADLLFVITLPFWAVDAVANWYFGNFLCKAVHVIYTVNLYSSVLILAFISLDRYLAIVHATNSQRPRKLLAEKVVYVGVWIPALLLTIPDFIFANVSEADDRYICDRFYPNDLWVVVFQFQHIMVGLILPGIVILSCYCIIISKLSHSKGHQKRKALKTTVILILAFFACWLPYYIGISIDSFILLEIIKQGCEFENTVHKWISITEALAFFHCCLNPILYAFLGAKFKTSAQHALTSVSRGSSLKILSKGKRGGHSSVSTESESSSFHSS

[2] = biological target: C-X-C chemokine receptor type 4 (Homo sapiens) (UniProt P61073); assay: Inhibition of CXCR4/CXCL12 interaction-mediated chemotaxis in human MDA-MB-231 cells assessed as inhibition of cell invasion at 100 nM after 22 hrs by hematoxylin/eosin dye-based matrigel assay relative to control
Mus musculus [3] = assay: Anti-inflammatory activity in Swiss albino mouse assessed as inhibition of xylene-induced ear edema at 30 mg/kg, ip pretreated for 1 hr followed by xylene challenge measured after 30 mins relative to control; assay type: functional
Mus musculus [4] = assay: Anti-inflammatory activity in xylene-induced ear edema mouse model assessed as reduction in inflammatory cells at 10 mg/kg, ip administered 30 mins post xylene challenge measured after 2 hrs by hematoxylin/eosin dye-based assay; assay type: functional, organism-based
Mus musculus [5] = assay: Anti-inflammatory activity in xylene-induced ear edema mouse model assessed as reduction in edema volume at 10 mg/kg, ip administered 30 mins post xylene challenge measured after 2 hrs by hematoxylin/eosin dye-based assay; assay type: functional, organism-based
Mus musculus [6] = assay: Anti-inflammatory activity in mouse assessed as inhibition of xylene-induced ear edema at 10 mg/kg, ip administered 30 mins post xylene challenge measured after 2 hrs relative to control; assay type: functional
[7] = biological target: C-X-C chemokine receptor type 4 (Mus musculus) (UniProt P70658); assay: Inhibition of CXCR4 in mouse J774A.1 cells assessed as reduction in Crohn's disease-associated Escherichia coli 131 infection-induced TNF-alpha level at 200 nM relative to control; assay type: cell-based
C-X-C chemokine receptor type 4 (Mus musculus), sequence (P70658 whole entry): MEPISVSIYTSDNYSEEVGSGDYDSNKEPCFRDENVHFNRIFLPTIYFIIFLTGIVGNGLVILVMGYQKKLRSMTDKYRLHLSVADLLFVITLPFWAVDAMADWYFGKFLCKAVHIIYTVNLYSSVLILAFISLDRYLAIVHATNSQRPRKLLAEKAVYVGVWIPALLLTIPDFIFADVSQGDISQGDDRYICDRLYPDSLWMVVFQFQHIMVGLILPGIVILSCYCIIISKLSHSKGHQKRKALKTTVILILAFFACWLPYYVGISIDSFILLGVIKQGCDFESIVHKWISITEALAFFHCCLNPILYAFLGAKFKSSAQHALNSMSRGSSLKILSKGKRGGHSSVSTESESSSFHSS

MDA-MB-231 = assay: Cytotoxicity against human MDA-MB-231 cells assessed as cell viability at 10 uM measured after 24 hrs by MTT assay; assay type: cell-based; conditions: mda-mb-231, 24 h
[8] = biological target: C-X-C chemokine receptor type 4 (Homo sapiens) (UniProt P61073); assay: Inhibition of CXCR4/CXCL12 (unknown origin) interaction-mediated Akt phosphorylation by western blot analysis
Mus musculus [9] = assay: Anti-inflammatory activity in xylene-induced ear edema mouse model assessed as reduction in ear thickness at 10 mg/kg, ip administered 30 mins post xylene challenge measured after 2 hrs by hematoxylin/eosin dye-based assay; assay type: functional, organism-based
[10] = biological target: C-X-C chemokine receptor type 4 (Homo sapiens) (UniProt P61073); assay: Potency index, ratio of AMD3100 EC to compound EC for displacement of biotinylated TN14003 from CXCR4 in human MDA-MB-231 cells; assay type: cell-based

Structure (SMILES) | EC [1] [nM] | inhibition [2] | inhibition in vivo at 10 mg/kg (Mus musculus [6]) [%] | also measured
O=C(NCc1ccc(CNS(=O)(=O)c2cccc(F)c2)cc1)c1cc2ccccn2n1 | 1000 | 40% | – | –
O=C(NCc1ccc(CNS(=O)(=O)c2ccc(F)cc2F)cc1)c1ncc[nH]1 | > 1000 | – | – | –
Cc1ccc(-c2cc(C(F)(F)F)nn2-c2ccc(S(N)(=O)=O)cc2)cc1 [CELECOXIB] | – | – | – | inhibition in vivo at 30 mg/kg (Mus musculus [3]): 47%
O=C(NCc1ccc(CNS(=O)(=O)c2ccc3c(c2)CCO3)cc1)c1cccc2c1COC2 | 1000 | 40% | – | –
Cc1cc(C(=O)NCc2ccc(CNS(=O)(=O)c3ccc4c(c3)CCO4)cc2)n(C)n1 | 1000 | Active | 35 | –
c1cc(CN2CCCNCCNCCCNCC2)ccc1CN1CCCNCCNCCCNCC1 | – | 55% | – | –
O=C(NCc1ccc(CNS(=O)(=O)c2ccc3c(c2)CCO3)cc1)c1cccnc1 | 1000 | 60% | 10 | –
O=C(NCc1ccc(CNS(=O)(=O)c2ccc(F)c(F)c2)cc1)c1cnc2ccccn12 | > 1000 | – | – | –
O=C(NCc1ccc(CNS(=O)(=O)c2ccc3c(c2)CCO3)cc1)c1scc2c1OCCO2 | 10 | 68% | 0 | –

The next lines start with results.

EC [1] [nM] | Structure (SMILES) | inhibition [2] | inhibition in vivo at 10 mg/kg (Mus musculus [6]) [%] | also measured
1 | O=C(NCc1ccc(CNS(=O)(=O)c2ccc(F)cc2F)cc1)c1cncnc1 | 74% | 56 | Activity (Mus musculus [4]): Active; Activity (Mus musculus [5]): Active; inhibition [7]: 67%; Activity (MDA-MB-231): Non-Toxic; inhibition [8]: Dose-dependent effect; Activity (Mus musculus [9]): Active; Ratio [10]: 1000
100 | O=C(NCc1ccc(CNS(=O)(=O)c2ccccc2F)cc1)c1cc2ccccn2n1 | 40% | – | –
1 | O=C(NCc1ccc(CNS(=O)(=O)c2ccc3c(c2)CCO3)cc1)c1cc2ccccn2n1 | 40% | – | Ratio [10]: 1000
1000 | Cn1nccc1C(=O)NCc1ccc(CNS(=O)(=O)c2ccc3c(c2)CCO3)cc1 | 40% | 38 | –
10 | Cc1nnsc1C(=O)NCc1ccc(CNS(=O)(=O)c2ccc(F)c(F)c2)cc1 | 40% | 54 | Activity (Mus musculus [4]): Active; Activity (Mus musculus [5]): Active; Activity (Mus musculus [9]): Active
